According to patent US4393210A, “1(2H)-Isoquinolone compounds and acid addition salts thereof” (Seiyaku Co., Ltd., priority 1980, dated 1983):
Structures can show the parent of a compound that is named as a salt.

Key:
[1] = tested on: indomethacin-induced ulcer; assay: Anti-ulcer activity, indomethacin-induced ulcer; format: in vivo, Wister male rats; details: for Percent Inhibition (indomethacin ulcer) / Ulcerous Index: oral; for Ulcerous Index: control 15.4, indomethacin 20 mg/kg s.c.
Protocol: A suspension of indomechacin in 0.25% CMC was administered subcutaneously at a dose of 20 mg/kg to Wister male rats (body weight, 125 to 150 g) fasted for 24 hours. The test compound was administered orally 30 minutes before the administration of indomethacin. Seven hours after the administration of indomethacin, the rats were sacrificed by dislocation of neck, and the stomach was extracted. 7.5 ml of 1% formalin solution was injected into the stomach cavity, and the stomack was hardened. The linear-type ulcer generated in the mucous membrane of the stomach was then observed.

Acute toxicity = details: mouse, in vivo; mice fasted overnight, observed for 7 days; route not stated
Protocol: The test compound was administered to ddy male mice (body weight, 20 to 25 g) fasted overnight before administration.

gastric secretion = assay: Gastric secretion inhibitory activity, pylorus ligation; format: in vivo, Wister male rats; details: for pH Value (gastric juice) / Amount of Gastric Juice / Amount of Output Secretion: 4 hours, n=10; for pH Value (gastric juice): control 1.71 ± 0.11; for Amount of Gastric Juice: control 2.51 ± 0.32; for Amount of Gastric Juice / Amount of Output Secretion: **p < 0.01; for Amount of Output Secretion: control 184 ± 27.2; for effect on volume of gastric juice, acid secretion and pH value: Table 2, 100 mg/kg
Protocol: The pylorus of Wister male rats (body weight, 180 to 200 g) fasted for 24 hours was ligated under ether anesthesia and, immediately thereafter, the test compound was administered into the duodenum. Four hours after the administration, the stomach was extracted and gastric juice was collected and centrifuged at 3,000 r.p.m. for 15 minutes. The volume of gastric juice, the pH value and the amount of output secretion were then determined with respect to the supernatant.

[2] = tested on: decrease in body temperature induced by administration of reserpine; assay: Anti-reserpine (anti-depression) activity, rectal temperature; format: in vivo, ddy male mice; details: oral, 50 and 100 mg/kg; reserpine 2 mg/kg s.c. twice
Protocol: Reserpine was administered subcutaneously to ddy male mice (body weight, 25 to 30 g) at a dose of 2 mg/kg and, after fasting for 18 hours, reserpine was again administered subcutaneously at a dose of 2 mg/kg. Five hours after the second administration of reserpine, the mice which indicated a constant decrease in body temperature were selected and administered orally with the test compound (Compound C), followed by measuring the rectal temperature of the mice at one hour intervals.
In this experiment, Imipramine (10,11-dihydro-N,N-dimethyl-5H-dibenz[b,f]azepine-5-propanamine) and Amitriptyline [3-(10,11-dihydro-5H-dibenzo[a,d]-cyclohepten-5-ylidene)-N,N-dimethyl-1-propanamine] were used as typical examples of known compounds for comparison and the results obtained with these compounds are also shown in FIG. 1(a).

[3] = tested on: histamine-induced contraction, guinea pig ileum; assay: Anti-histamine activity, histamine-induced contraction of extracted ileum (Magnus tube); details: 31° C.; for shift of histamine-induced contraction curve: treatment 30 seconds before inducing contraction; for anti-histamine activity: guinea pig ileum
Protocol: (§1) The ileum of guinea pig (body weight, 300 to 400 g) was extracted and suspended in a Magnus tobe containing Tyrode's solution (saturated with oxygen) at 31° C. and the inhibitory activity of the test compounds on the contraction induced by administration of histamine or acetylchloline was determined. The treatment with the test compounds was conducted 30 seconds before inducing the contraction.

[4] = tested on: contraction induced by acetylchloline, ileum of guinea pig; assay: Anti-cholinergic activity, acetylcholine-induced contraction of extracted ileum (Magnus tube); details: 31° C.
Protocol: as §1

[5] = tested on: ulcer generation caused by water-dipping restriction stress; assay: Anti-ulcer activity, stress ulcer (water-dipping restriction stress); format: in vivo, Wister male rats; details: for Ulcerous Index / Percent Inhibition (stress ulcer): oral; for Ulcerous Index: n=6, control 75.8
Protocol: The test compound was administered orally to Wister male rats (body weight, 200 to 230 g) and then the rats were tied up with a steel wire and dipped in water at 23° C. in a tank to the level of the xiphisternum of rats. After allowing the rats to stand for 7 hours in water, the rats were sacrificed and the stomach was extracted. 10 ml of a 1% formalin solution was injected into the stomach cavity and the stomach was dipped in a 1% formalin solution for 15 minutes to semi-harden the stomach. The stomach was excised along the greater curvature thereof and the ulcer generated in the portion of corpus ventriculi was observed.

[6] = tested on: pain reaction induced by acetic acid injection; assay: Analgesic activity, acetic acid stretching method (Koster et al); format: in vivo, ddy male mice; details: oral; for Number of Stretching: n=8, control 36.5 ± 6.5
Protocol: According to the acetic acid stretching method described by Koster et al [Fed. Pro., 18, 412 (1959)], Compound A was administered orally to ddy male mice (body weight, 20 to 25 g) fasted overnight before test. One hour after administration of Compound A, a 0.6% aqueous acetic acid solution was administered intraperitoneally at a dose of 0.35 ml per mouse and the stretching of the mice was observed 10 minutes after the administration of the acetic acid solution for a period of 10 minutes, and the percent inhibition was calculated.

[7] = 100 mg/kg into the duodenum, *p < 0.05

## basic aluminum sucrose sulfate [Sucralfate, reference compound]
[1]; 300 mg/kg
  Percent Inhibition (indomethacin ulcer): 81.1%
  Ulcerous Index: 2.9 mm

## CN(C)CCCn1cc(C#N)c2ccccc2c1=O [Compound C, 4-cyano-2-(3-N,N-dimethylaminopropyl)-1(2H)-isoquinolone tartrate 1/2 hydrate]
Acute toxicity
  LD50 at 168 h: 699 mg/kg
Gastric secretion; [7]
  pH Value (gastric juice): 1.88 ± 0.10
Gastric secretion; 100 mg/kg into the duodenum
  Amount of Gastric Juice: 1.85 ± 0.35 mL
  Amount of Output Secretion: 72 ± 5.3 μ Eq.
Gastric secretion
  effect on volume of gastric juice, acid secretion and pH value: reduce the volume of gastric juice and the acid secretion and increase the pH value
[2]
  rectal temperature decreased by pretreatment with reserpine: increases at a dose of 50 and 100 mg/kg significantly the rectal temperature
[3]
  shift of histamine-induced contraction curve: shift the hitamine-induced contraction curve determined in guinea pig ileum to the right direction on the figures in parallel
  anti-histamine activity: possess a specific anti-histamine activity

## CC(Cn1cc(-c2ccccc2)c2ccccc2c1=O)N(C)C (stereo not drawn) [Compound D, 2-(2-N,N-dimethylaminopropyl)-4-phenyl-1(2H)-isoquinolone maleate]
Acute toxicity
  LD50 at 168 h: 505 mg/kg
[1]; 50 mg/kg
  inhibition of indomethacin-induced ulcer: inhibit the indomethacin-induced ulcer
  Percent Inhibition (indomethacin ulcer): 73.0%
[1]; 50 mg/kg, n=8
  Ulcerous Index: 4.1 mm

## CN(C)CCn1cc(-c2ccccc2)c2ccccc2c1=O [Compound B, 2-(2-N,N-dimethylaminoethyl)-4-phenyl-1(2H)-isoquinolone hydrochloride]
[4]
  anti-cholinergic activity: non-specific anti-cholinergic activity
Acute toxicity
  LD50 at 168 h: 195 mg/kg
[1]; 50 mg/kg
  inhibition of indomethacin-induced ulcer: inhibit the indomethacin-induced ulcer
  Percent Inhibition (indomethacin ulcer): 61.0%
[1]; 50 mg/kg, n=8
  Ulcerous Index: 6.0 mm
[3]
  shift of histamine-induced contraction curve: shift the hitamine-induced contraction curve determined in guinea pig ileum to the right direction on the figures in parallel
  anti-histamine activity: possess a specific anti-histamine activity

## CCN1CCCC1CNC(=O)c1cc(S(N)(=O)=O)ccc1OC (stereo not drawn) [Sulpiride, 5(aminosulfonyl)-N--(1ethyl-2-pyrrolidinyl)-methyl 2-methoxybenzamide, reference compound]
[5]; 100 mg/kg
  Ulcerous Index: 71.0 mm

## CN(C)CCCn1cc(-c2ccccc2)c2ccccc2c1=O [Compound A, 2-(3-N,N-dimethylaminopropyl)-4-phenyl-1(2H)-isoquinolone tartrate]
[4]
  anti-cholinergic activity: non-specific anti-cholinergic activity
Acute toxicity
  LD50 at 168 h: 662 mg/kg
[5]; dose of 25, 50 and 100 mg
  inhibition of ulcer generation caused by water-dipping restriction stress: inhibits the ulcer generation caused by water-dipping restriction stress
[5]; 25 mg/kg
  Percent Inhibition (stress ulcer): 23.5%
  Ulcerous Index: 58.0 mm
[5]; 50 mg/kg
  Percent Inhibition (stress ulcer): 36.4%
  Ulcerous Index: 48.2 mm
[5]; 100 mg/kg
  Percent Inhibition (stress ulcer): 66.0%
  Ulcerous Index: 25.3 mm
Gastric secretion; [7]
  pH Value (gastric juice): 3.06 ± 0.44
Gastric secretion; 100 mg/kg into the duodenum
  Amount of Gastric Juice: 0.53 ± 0.12 mL
  Amount of Output Secretion: 22 ± 5.9 μ Eq.
Gastric secretion
  effect on volume of gastric juice, acid secretion and pH value: reduce the volume of gastric juice and the acid secretion and increase the pH value
[3]
  shift of histamine-induced contraction curve: shift the hitamine-induced contraction curve determined in guinea pig ileum to the right direction on the figures in parallel
  anti-histamine activity: possess a specific anti-histamine activity
[6]; 25 mg/kg
  Number of Stretching: 33.8 ± 8.2
[6]; 50 mg/kg
  Percent Inhibition (stretching): 53.7%
[6]; 50 mg/kg, *p < 0.05
  Number of Stretching: 16.9 ± 4.8
[6]; 100 mg/kg
  Percent Inhibition (stretching): 72.6%
[6]; 100 mg/kg, **p < 0.01
  Number of Stretching: 10.0 ± 2.8
[6]; 50 and 100 mg/kg
  inhibition of the pain reaction induced by acetic acid injection: inhibited the pain reaction induced by acetic acid injection

## CN1[C@@H]2CC[C@H]1C[C@@H](OC(=O)C(CO)c1ccccc1)C2 (stereo partly drawn) [Atropine, reference compound]
[5]; 5 mg/kg
  Percent Inhibition (stress ulcer): 93.0%
  Ulcerous Index: 5.3 mm
Gastric secretion; 5 mg/kg into the duodenum
  pH Value (gastric juice): 2.22 ± 0.25
  Amount of Gastric Juice: 0.90 ± 0.09 mL
  Amount of Output Secretion: 57 ± 6.0 μ Eq.
